The values that follow come from patent publication US20260193317A1, “COMBINATION THERAPY WITH ACTRIIB RECEPTOR VARIANTS AND GLP-1 AGONISTS” (35PHARMA Inc., priority 2023, published 2026).

Assay type in all cases: in vivo
Test [1] is described as follows: Single-injection body weight gain in wild-type mice. The settings on record: single 25 mg/kg subcutaneous injection, after 4 days, vs vehicle. As for the experimental part: To investigate the target engagement of exemplary ActRIIB-ECD polypeptide constructs in vivo, mice (n=6/group) were injected with given agents (25 mg/kg, subcutaneous injection), and sacrificed after 4 days to assess body weight gain.

For test [2], the system named is diet-induced obese (DIO) mice. The test is described as follows: Body composition and metabolism in diet-induced obese (DIO) mice. As for the experimental part: (§1) Experiments were performed to assess the effects of P1229 on body composition and metabolism in diet-induced obese (DIO) mice. DIO mice were purchased from Jackson Laboratories (#380050). Briefly, mice were fed a high-fat diet (HFD, 60% kcal from fat) from 6 weeks of age until 22 weeks of age (total of 16 weeks on the HFD). […] After 3 weeks of treatments, some animals were sacrificed and scanned by EchoMRI […] (FIGS. 11A-F), while others were sacrificed for tissue collection and RNA analysis. Animals were maintained on the HFD throughout the acclimatization and treatment periods. The murine version of bimagrumab used for these experiments comprises the heavy chain amino acid sequence of SEQ ID NO: 376 and the light chain sequence of SEQ ID NO: 377.

Test [3] in a line: Single subcutaneous injection in CD-1 mice: body weight. Particulars: CD-1 male mice, single s.c. injection; P1229 50 mg/kg, semaglutide 2 mg/kg.
The subject of test [4] is follicle-stimulating hormone (FSH). Put plainly: FSH production in DIO mice. Particulars: 3 weeks of treatment. As for the experimental part: as §1
Follicle-stimulating hormone (FSH) is a known biomarker of in vivo target engagement for activin receptor-based traps (See Attie et al. (2013). Muscle Nerve, 47: 416-423). To further validate in vivo target engagement for exemplary agents, FSH production was evaluated in DIO mice, as described above.

As to “P1229: hActRIIB L33W, 14 aa linker, IgG1-DL Fc; SEQ ID 211”, the body weight gain result in test [1] is “apparent body weight gain that did not reach statistical significance”. In test [2], the “hepatic Ahsg expression” value was “reduced Ahsg expression” and the “hepatic Fgf21 expression” value is recorded as “reduced”. Moreover, in test [2] (3 weeks), the “Mss51 gene expression in gastrocnemius muscle” value is on record as “reduced Mss51 gene expression” and the “ratio of lean mass to fat mass” value was “higher”. The “fat mass and lean mass (EchoMRI)” value in test [2] (3 weeks s.c., P75, P1229 25 mg/kg twice weekly, P1373 5, 20, 50 mg/kg twice weekly, P1307 20 mg/kg weekly) is “fat loss with concomitant lean mass gain”. In addition, in test [3], the body weight entry is recorded as “increased body weight”. Besides, in test [4], the FSH production entry is on record as “significant decreases in FSH production”.
